Assay results published in US20250295628A1 (priority 2022, published 2025).

How the values were obtained:
[1] = Solid stability of compositions 1-11 and compounds 1A-11A: main component content over time under different conditions (Example 37, Table 32); type: physicochemical
Experimental: Compositions 1-11 and compounds 1A-11A were placed at environments of −25° C., 5±3° C., 25±2° C./60±5% RH, 40±2° C./75±5% RH, 60° C. for 0 d, 5 d and 10 d (d refers to day), respectively, and changes of the main component content (the main component content of 0 day was converted to 100%) were measured, the results are shown in Table 32.

[2] = Acute toxicity in SD rats (Example 16); type: in vivo; conditions: both sexes, rat, in vivo, 3 g/kg, single intravenous injection, read-out: rat MTD, injected
Text: (§1) SPF-grade SD rats, 180˜220 g, 70 males and 70 females, were divided into 7 groups, 10 males and 10 females in each group. Rats in group 1 were intravenous injected with 3 g/kg of D3; rats in group 2 were intravenous injected with 3 g/kg of composition 3; rats in group 3 were intravenous injected with 3 g/kg of composition 3-powder injection; rats in group 4 were orally administrated with 5 g/kg of composition 3-enteric-coated granule; rats in group 5 were orally administrated with 5 g/kg of composition 3-enteric-coated capsule; rats in group 6 were orally administrated with 5 g/kg of composition 3-enteric-coated sustained-release capsule; group 7 was a blank group. After administration, the poisoning situation was observed every day, and no obvious poisoning reaction was found.

[3] = tested on: SD rats; assay: Acute toxicity in SD rats (Example 16); type: in vivo; conditions: intravenous 3 g/kg, observed 14 days
Text: as §1

[4] = Acute toxicity in beagles (Example 16); type: in vivo; conditions: both sexes, beagle, dog, in vivo, 2 g/kg, single intravenous injection, read-out: dog MTD, injected
Text: (§2) Ordinary grade beagles 8˜10 kg, 70 males and 70 females, were divided into 7 groups, 10 males and 10 females in each group. Beagles in group 1 were intravenous injected with 2 g/kg of D3; beagles in group 2 were intravenous injected with 2 g/kg of composition 3; beagles in group 3 were intravenous injected with 2 g/kg of composition 3-powder injection; beagles in group 4 were orally administrated with 5 g/kg of composition 3-enteric-coated granule; beagles in group 5 were orally administrated with 5 g/kg of composition 3-enteric-coated capsule; beagles in group 6 were orally administrated with 5 g/kg of composition 3-enteric-coated sustained-release capsule; group 7 was a blank group. After administration, the poisoning situation was observed every day, and no obvious poisoning reaction was found.

[5] = tested on: beagles; assay: Acute toxicity in beagles (Example 16); type: in vivo; conditions: intravenous 2 g/kg, observed 14 days
Text: as §2

[6] = Compatibility stability and pH of 2 mg/ml solutions in normal saline and 5% glucose injection at room temperature (Example 15); type: physicochemical; conditions: for main component content in solution: 2 mg/ml, room temperature
[7] = tested on: chronic cadmium poisoning model rabbits; assay: Cadmium-removing effect by intravenous drip in chronic cadmium poisoning rabbits (Example 18); type: in vivo, New Zealand rabbits; conditions: for Urine β2-microglobulin values: after four weeks of administration
Text: 205 male New Zealand rabbits, 1.8˜2.2 kg, were randomly divided into a blank control group with 25 rabbits and chronic cadmium poisoning groups with a total of 180 rabbits. The model rabbits were ear margin intravenous injected with a mixed solution containing 1.5 μmol/kg CdCl2 and 30 μmol/kg thioethanol (ME) according to weight, once/d for continuous 5 days, and observed for 35 days. After 35 days, qualified rabbits were selected according to weight, including 18 rabbits in the blank group and 162 rabbits in the poisoning group. The 162 rabbits in the poisoning group were randomly divided into a model group, D3 high-dose group, D3 low-dose group, compound 3B high-dose group, compound 3B low-dose group, composition 3 high-dose group, composition 3 low-dose group, composition 3-powder injection high-dose group, composition 3-powder injection low-dose group, with 18 rabbits in each group. Rabbits in the mode group and the blank group were administered by intravenous drip with the same volume of normal saline, with a rate of 30 drops/min for a dripping time of about 2 h, 1 time/d, 5 d/week. After administration on the last day of week 1, week 2 and week 4, the urine of 0 h˜6 h and the urine of 7 h˜24 h of rabbits were respectively collected; the content of cadmium in blood, urine and kidney, and the cadmium-removing rate from blood and kidney were determined, and the results are shown in Table 6.

[8] = Solid stability: main component content over time under storage conditions (Example 15); type: physicochemical
[9] = 1 w of treatment, high-dose group (D3 433, composition 3 and composition 3-preparation 108 mg/kg)
[10] = 1 w of treatment, high-dose group (D3 433, compound 3B 83.5, composition 3 and composition 3-preparation 108 mg/kg)
[11] = 1 w of treatment, low-dose group (D3 108, composition 3 and composition 3-preparation 27 mg/kg)
[12] = 1 w of treatment, low-dose group (D3 108, compound 3B 21, composition 3 and composition 3-preparation 27 mg/kg)
[13] = 2 w of treatment, high-dose group (D3 433, composition 3 and composition 3-preparation 108 mg/kg)
[14] = 2 w of treatment, high-dose group (D3 433, compound 3B 83.5, composition 3 and composition 3-preparation 108 mg/kg)
[15] = 2 w of treatment, low-dose group (D3 108, composition 3 and composition 3-preparation 27 mg/kg)
[16] = 2 w of treatment, low-dose group (D3 108, compound 3B 21, composition 3 and composition 3-preparation 27 mg/kg)
[17] = 4 w of treatment, high-dose group (D3 433, composition 3 and composition 3-preparation 108 mg/kg)
[18] = 4 w of treatment, high-dose group (D3 433, compound 3B 83.5, composition 3 and composition 3-preparation 108 mg/kg)
[19] = 4 w of treatment, low-dose group (D3 108, composition 3 and composition 3-preparation 27 mg/kg)
[20] = 4 w of treatment, low-dose group (D3 108, compound 3B 21, composition 3 and composition 3-preparation 27 mg/kg)

CSCCC(C(=O)[O-])N(CC(O)C(O)C(O)C(O)CO)C(=S)[S][Na].[Na+] [Composition D3, N-(2,3,4,5,6-pentahydroxyhexyl)-(N-disubstitutedsodium formate)-L-sodium methionate]
main component content ([1]; 5 ± 3° C., 0 d (0 day content converted to 100%)): 100% | main component content ([1]; 5 ± 3° C., 5 d): 97.3% | main component content ([1]; 5 ± 3° C., 10 d): 96.5% | main component content ([1]; 25 ± 2° C./60 ± 5% RH, 0 d (0 day content converted to 100%)): 100% | main component content ([1]; 25 ± 2° C./60 ± 5% RH, 5 d): 95.1% | main component content ([1]; 25 ± 2° C./60 ± 5% RH, 10 d): 90.3% | main component content ([1]; 40 ± 2° C./75 ± 5% RH, 0 d (0 day content converted to 100%)): 100% | main component content ([1]; 40 ± 2° C./75 ± 5% RH, 5 d): 91.2% | main component content ([1]; 40 ± 2° C./75 ± 5% RH, 10 d): 84.2% | main component content ([1]; 60° C., 0 d (0 day content converted to 100%)): 100% | main component content ([1]; 60° C., 5 d): 65.6% | main component content ([1]; 60° C., 10 d): 64.2% | main component content ([1]; −25° C., 0 d (0 day content converted to 100%)): 100% | main component content ([1]; −25° C., 5 d): 101.2% | main component content ([1]; −25° C., 10 d): 99.8% | MTD at 14 d [2]: > 3000 mg/kg | acute toxicity observation [3]: no obvious toxicity | MTD at 14 d [4]: > 2000 mg/kg | acute toxicity observation [5]: no obvious toxicity | pH ([6]; 2 mg/ml solution in 5% glucose injection): 9.7 | pH ([6]; 2 mg/ml solution in normal saline): 9.7 | main component content in solution ([6]; 5% glucose injection, 0 h (converted to 100%)): 100% | main component content in solution ([6]; 5% glucose injection, 1 h): 90% | main component content in solution ([6]; 5% glucose injection, 2 h): 81% | main component content in solution ([6]; 5% glucose injection, 4 h): 69% | main component content in solution ([6]; 5% glucose injection, 8 h): 54% | main component content in solution ([6]; normal saline, 0 h (converted to 100%)): 100% | main component content in solution ([6]; normal saline, 1 h): 95% | main component content in solution ([6]; normal saline, 2 h): 83% | main component content in solution ([6]; normal saline, 4 h): 73% | main component content in solution ([6]; normal saline, 8 h): 71% | Removing rate (cadmium in blood) [7, 9]: 13.9% | Removing rate (cadmium in kidney) [7, 9]: 47.8% | Cadmium in blood [7, 10]: 89.45 ± 13.31 µg/L | Cadmium in kidney [7, 10]: 6.53 ± 2.16 µg/L | Removing rate (cadmium in blood) [7, 11]: 6.8% | Removing rate (cadmium in kidney) [7, 11]: 39.7% | Cadmium in blood [7, 12]: 96.60 ± 6.31 µg/L | Cadmium in kidney [7, 12]: 7.42 ± 3.83 µg/L | Removing rate (cadmium in blood) [7, 13]: 16.9% | Removing rate (cadmium in kidney) [7, 13]: 77.0% | Cadmium in blood [7, 14]: 61.39 ± 12.47 µg/L | Cadmium in kidney [7, 14]: 3.36 ± 1.08 µg/L | Removing rate (cadmium in blood) [7, 15]: 0.07% | Removing rate (cadmium in kidney) [7, 15]: 54.0% | Cadmium in blood [7, 16]: 68.54 ± 13.39 µg/L | Cadmium in kidney [7, 16]: 5.92 ± 2.01 µg/L | Removing rate (cadmium in blood) [7, 17]: 35.8% | Removing rate (cadmium in kidney) [7, 17]: 91.7% | Cadmium in blood [7, 18]: 17.67 ± 6.84 µg/L | Cadmium in kidney [7, 18]: 1.85 ± 0.52 µg/L | Removing rate (cadmium in blood) [7, 19]: 11.1% | Removing rate (cadmium in kidney) [7, 19]: 75.8% | Cadmium in blood [7, 20]: 24.34 ± 8.38 µg/L | Cadmium in kidney [7, 20]: 3.93 ± 1.16 µg/L | Urine β2-microglobulin values ([7]; high-dose group (D3 433, compound 3B 83.5, composition 3 and composition 3-preparation 108 mg/kg)): 161.64 ± 45.18 ng/L | Urine β2-microglobulin values ([7]; low-dose group (D3 108, compound 3B 21, composition 3 and composition 3-preparation 27 mg/kg)): 197.15 ± 31.66 ng/L | main component content ([8]; 5 ± 3° C., 0 d (converted to 100%)): 100% | main component content ([8]; 5 ± 3° C., 5 d): 97.3% | main component content ([8]; 5 ± 3° C., 10 d): 96.5% | main component content ([8]; 5 ± 3° C., 30 d): 90.8% | decrease of the main component content / stability on 180 d ([8]; 5±3° C., 180 d): about 18.8% | main component content ([8]; 5±3° C., 180 d): 81.2% | main component content ([8]; 25 ± 2° C./60 ± 5% RH, 0 d (converted to 100%)): 100% | main component content ([8]; 25 ± 2° C./60 ± 5% RH, 5 d): 95.1% | main component content ([8]; 25 ± 2° C./60 ± 5% RH, 10 d): 90.3% | main component content ([8]; 25 ± 2° C./60 ± 5% RH, 30 d): 84.6% | main component content ([8]; 25 ± 2° C./60 ± 5% RH, 180 d): 64.2% | main component content ([8]; 40 ± 2° C./75 ± 5% RH, 0 d (converted to 100%)): 100% | main component content ([8]; 40 ± 2° C./75 ± 5% RH, 5 d): 91.2% | main component content ([8]; 40 ± 2° C./75 ± 5% RH, 10 d): 84.3% | main component content ([8]; 40 ± 2° C./75 ± 5% RH, 30 d): 60.3% | main component content ([8]; −25° C., 0 d (converted to 100%)): 100% | main component content ([8]; −25° C., 5 d): 101.2% | main component content ([8]; −25° C., 10 d): 99.8% | main component content ([8]; −25° C., 30 d): 100.7% | main component content ([8]; −25° C., 180 d): 99.9%
